Reference: ChEMBL document CHEMBL4330075, “Discovery of Novel Quinoline-Chalcone Derivatives as Potent Antitumor Agents with Microtubule Polymerization Inhibitory Activity” (J Med Chem, 2019)
Values after ≈ are worked out from the molar mass of the structure shown. Active and inactive are the calls of the source. The rule behind the calls is not given here.

How the values were obtained:
[1] = Antitumor activity against […] H22 cells xenografted in ICR mouse assessed as reduction tumor weight at 8 mg/kg, iv administered every 2 days for 21 days and measured every 2 days relative to control; assay type: functional
[2] = Toxicity in ICR mouse xenografted with […] cells assessed as decrease in body weight at 8 mg/kg, iv administered every 2 days for 21 days and measured every 2 days; assay type: organism-based; settings: in vivo
[3] = test system: K562; test: Antiproliferative activity against human K562 cells after 72 hrs by MTT assay; assay type: functional, cell-based; settings: K562, 72 h
[4] = test system: KB; test: Antiproliferative activity against human KB cells after 72 hrs by MTT assay; assay type: functional, cell-based
[5] = test system: HCT-8; test: Antiproliferative activity against human HCT8 cells after 72 hrs by MTT assay; assay type: functional, cell-based; settings: HCT-8, 72 h
[6] = test system: MDA-MB-231; test: Antiproliferative activity against human MDA-MB-231 cells after 72 hrs by MTT assay; assay type: functional, cell-based; settings: MDA-MB-231, 72 h
[7] = test system: HepG2; test: cells; settings: Homo sapiens, HepG2, 72 h
[8] = test system: L02; test: Cytotoxicity against human LO2 cells after 72 hrs by MTT assay; assay type: cell-based; settings: L02, 72 h
[9] = Selectivity index, ratio of IC50 for human LO2 cells to IC50 for human HepG2 cells; assay type: toxicity; settings: LO2 cells and HepG2 cells, read-out: Ratio IC50
[10] = Aqueous solubility in pH 7.4 phosphate buffer by HPLC analysis; assay type: physicochemical
[11] = test system: K562; test: Cell cycle arrest in human K562 cells assessed as decrease in cdc2 expression after 48 hrs by Western blot analysis; assay type: functional, cell-based
[12] = test system: K562; test: Cell cycle arrest in human K562 cells assessed as decrease in cyclin B1 expression after 48 hrs by Western blot analysis; assay type: functional, cell-based
[13] = molecular target: T1, Tubulin (Sus scrofa) (UniProt P02554+P02550); test: Inhibition of porcine brain tubulin polymerization measured every 2 mins for 60 mins by spectrophotometric analysis
T1 sequence (P02550 whole entry, looked up): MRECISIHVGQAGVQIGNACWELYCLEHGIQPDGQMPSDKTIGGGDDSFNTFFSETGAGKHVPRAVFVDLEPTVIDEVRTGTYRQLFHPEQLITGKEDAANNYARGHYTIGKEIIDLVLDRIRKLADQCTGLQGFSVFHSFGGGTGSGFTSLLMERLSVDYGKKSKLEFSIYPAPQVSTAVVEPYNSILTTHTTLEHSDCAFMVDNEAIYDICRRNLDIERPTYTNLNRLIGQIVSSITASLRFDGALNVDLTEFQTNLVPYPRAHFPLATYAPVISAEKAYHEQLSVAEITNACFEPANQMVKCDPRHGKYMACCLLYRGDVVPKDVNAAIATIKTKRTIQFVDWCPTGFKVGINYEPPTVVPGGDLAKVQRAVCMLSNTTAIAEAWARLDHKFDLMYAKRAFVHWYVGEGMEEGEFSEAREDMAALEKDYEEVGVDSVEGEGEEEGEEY
T1 sequence (P02554 whole entry, looked up): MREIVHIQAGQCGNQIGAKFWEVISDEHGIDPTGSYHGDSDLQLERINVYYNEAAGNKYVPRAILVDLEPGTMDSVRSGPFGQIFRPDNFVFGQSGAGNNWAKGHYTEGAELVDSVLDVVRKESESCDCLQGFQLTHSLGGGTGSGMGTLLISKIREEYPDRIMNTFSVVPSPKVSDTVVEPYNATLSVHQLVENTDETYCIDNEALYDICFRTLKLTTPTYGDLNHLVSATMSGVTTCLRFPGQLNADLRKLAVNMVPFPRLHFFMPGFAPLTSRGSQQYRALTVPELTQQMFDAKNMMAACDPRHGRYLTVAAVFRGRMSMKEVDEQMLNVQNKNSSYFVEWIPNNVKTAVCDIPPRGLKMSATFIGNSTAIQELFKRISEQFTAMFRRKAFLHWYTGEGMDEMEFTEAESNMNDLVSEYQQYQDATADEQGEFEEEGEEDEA

[14] = molecular target: T1, Tubulin (Sus scrofa); test: Inhibition of [3H]colchicine binding to biotinylated porcine tubulin at 1 uM after 2 hrs by scintillation proximity assay relative to control; assay type: protein assay
[15] = molecular target: T1, Tubulin (Sus scrofa); test: Inhibition of [3H]colchicine binding to biotinylated porcine tubulin at 5 uM after 2 hrs by scintillation proximity assay relative to control; assay type: protein assay
[16] = test system: K562; test: Cell cycle arrest in human K562 cells assessed as decrease in cdc25c expression after 48 hrs by Western blot analysis; assay type: functional, cell-based
[17] = test system: K562; test: Induction of apoptosis in human K562 assessed as nuclear fragmentation at 5 to 20 nM after 48 hrs by Hoechst 33342 staining-based fluorescence microscopic analysis; assay type: functional, cell-based
[18] = test system: K562; test: Induction of apoptosis in human K562 assessed as chromatin condensation at 5 to 20 nM after 48 hrs by Hoechst 33342 staining-based fluorescence microscopic analysis; assay type: functional, cell-based
[19] = test system: K562; test: Induction of apoptosis in human K562 assessed as upregulation of Bad expression after 48 hrs by Western blot analysis; assay type: functional, cell-based
[20] = test system: K562; test: Induction of apoptosis in human K562 assessed as upregulation of Bax expression after 48 hrs by Western blot analysis; assay type: functional, cell-based
[21] = test system: K562; test: Induction of apoptosis in human K562 assessed as down regulation of Bcl-2 expression after 48 hrs by Western blot analysis; assay type: functional, cell-based
[22] = test system: K562; test: Induction of apoptosis in human K562 assessed as down regulation of Bcl-xl expression after 48 hrs by Western blot analysis; assay type: functional, cell-based
[23] = test system: K562; test: Induction of ROS generation in human K562 cells after 48 hrs by DCF-DA probe-based flow cytometric analysis; assay type: functional, cell-based
[24] = test system: K562; test: Induction of ROS generation in human K562 cells up to 20 nM after 48 hrs in presence of N-acetyl-cycteine by DCF-DA probe-based flow cytometric analysis; assay type: functional, cell-based
[25] = test system: MDA-MB-231; test: Antimigratory activity against human MDA-MB-231 cells after 48 hrs by transwell assay; assay type: functional, cell-based
[26] = test system: MDA-MB-231; test: Antiinvasive activity against human MDA-MB-231 cells after 48 hrs by crystal violet staining-based transwell assay; assay type: functional, cell-based
[27] = test system: HUVEC; test: Antimigratory activity against human HUVEC cells at 20 nM after 24 hrs by wound healing assay; assay type: functional, cell-based
[28] = test system: HUVEC; test: Inhibition of tube formation in human HUVEC cells at 5 to 20 nM after 6 hrs by tube formation assay; assay type: functional, cell-based
[29] = test system: Homo sapiens; test: Antitumor activity against […] H22 cells xenografted in ICR mouse assessed as reduction in tumor volume administered intravenously once daily for 21 consecutive days and measured every 2 days; assay type: functional
[30] = test system: Homo sapiens; test: Antivascular activity against […] H22 cells xenografted in ICR mouse assessed as decrease in tumor microvessel density at 20 mg/kg, iv qd […] every 2 days for 21 days by CD31/hematoxylin staining-based immunohistochemistry assay; assay type: functional, organism-based
[31] = test system: Homo sapiens; test: Antitumor activity against […] H22 cells xenografted in ICR mouse assessed as reduction in tumor weight administered intravenously once daily for 21 consecutive days and measured every 2 days; assay type: functional
[32] = test system: Homo sapiens; test: Antitumor activity against […] H22 cells xenografted in ICR mouse assessed as reduction in tumor volume at 20 mg/kg, iv qd for 21 consecutive days and measured every 2 days relative to control; assay type: functional, organism-based
[33] = molecular target: Tubulin (Homo sapiens) (UniProt P68371+Q9H4B7+P0DPH7+P68366+Q13509+Q71U36+P04350+Q3ZCM7+P07437+P68363+Q9BQE3+Q6PEY2+Q13885+Q9BVA1+Q9BUF5); test: Disruption of microtubule network in human K562 cells at 30 nM after 24 hrs by scanning confocal microscopic analysis
[34] = Antitumor activity against […] H22 cells xenografted in ICR mouse assessed as reduction in tumor weight at 20 mg/kg, iv qd for 21 consecutive days and measured every 2 days relative to control; assay type: functional; design: scale not given: the % may be the effect or the level left
[35] = Toxicity in ICR mouse xenografted with […] cells assessed as decrease in body weight at 10 to 20 mg/kg, iv qd administered for 21 days and measured every 2 days; assay type: organism-based; settings: in vivo

CC(=O)O[C@H]1C(=O)[C@@]2(C)[C@H]([C@H](OC(=O)c3ccccc3)[C@]3(O)C[C@H](OC(=O)[C@H](O)[C@@H](NC(=O)c4ccccc4)c4ccccc4)C(C)=C1C3(C)C)[C@]1(OC(C)=O)CO[C@@H]1C[C@@H]2O [PACLITAXEL]
inhibition in vivo at 8 mg/kg [1]: 90.4% | Activity [2]: Toxic

COc1ccc(/C=C\c2cc(OC)c(OC)c(OC)c2)cc1O [COMBRETASTATIN A4]
IC50 [3]: 0.011 µM

COc1ccc(/C=C(\C)C(=O)c2cc(=O)[nH]c3ccccc23)cc1O
IC50 [3]: 1.24 µM

COc1ccc2c(/C=C(\C)C(=O)c3cc(C)nc4ccccc34)c[nH]c2c1
IC50 [3]: > 1 µM

COc1ccc(/C=C(\C)C(=O)c2cc(C)nc3ccccc23)cc1
IC50 [3]: 0.108 µM

COc1ccc(/C=C(\C)C(=O)c2cc(N3CCCC3)nc3ccccc23)cc1O
IC50 [3]: 0.315 µM

COc1ccc(CNc2cc(C(=O)/C(C)=C/c3ccc(OC)c(O)c3)c3ccccc3n2)cc1
IC50 [3]: 0.33 µM

COc1ccc(/C=C(\C)C(=O)c2cc(Cl)nc3ccccc23)cc1O
IC50 [3]: 0.053 µM | IC50 [4]: 0.237 µM | IC50 [5]: 0.227 µM | IC50 [6]: 0.183 µM | IC50 [7]: 0.187 µM

CCOC(=O)c1cc(C(=O)/C(C)=C/c2ccc(OC)c(O)c2)c2ccccc2n1
IC50 [3]: 0.12 µM

COc1ccc(/C=C(\C)C(=O)c2cc(NC3CC3)nc3ccccc23)cc1O
IC50 [3]: 0.058 µM

CSc1ccc(/C=C(\C)C(=O)c2cc(C)nc3ccccc23)cc1
IC50 [3]: 0.563 µM

COc1ccc(/C=C(\C)C(=O)c2cc(CO)nc3ccccc23)cc1O
IC50 [3]: 0.05 µM | IC50 [4]: 0.231 µM | IC50 [5]: 0.242 µM | IC50 [6]: 0.209 µM | IC50 [7]: 0.165 µM

COc1ccc(/C=C(\C)C(=O)c2cc(N3CCOCC3)nc3ccccc23)cc1O
IC50 [3]: 0.153 µM

COc1ccc(/C=C(\C)C(=O)c2cc(C)nc3ccccc23)cc1F
IC50 [3]: 0.069 µM

COc1ccc(/C=C/C(=O)c2cc(C)nc3ccccc23)cc1O
IC50 [3]: 0.127 µM | IC50 [4]: 0.123 µM | IC50 [5]: 0.137 µM | IC50 [6]: 0.112 µM | IC50 [7]: 0.121 µM

COc1ccc(/C=C(\C)C(=O)c2ccnc3ccccc23)cc1O
IC50 [3]: 0.015 µM | IC50 [4]: 0.026 µM | IC50 [5]: 0.037 µM | IC50 [6]: 0.03 µM | IC50 [8]: 0.928 µM | selectivity ratio [9]: 38.7 | IC50 [7]: 0.024 µM

COc1cc(C(=O)/C(C)=C/c2ccc(OC)c(O)c2)c2ccccc2n1
IC50 [3]: 0.026 µM | IC50 [4]: 0.052 µM | IC50 [5]: 0.061 µM | IC50 [6]: 0.052 µM | IC50 [8]: 0.914 µM | selectivity ratio [9]: 24.1 | IC50 [7]: 0.038 µM

COc1ccc(/C=C/C(=O)c2cc(OC)c(OC)c(OC)c2)cc1O
IC50 [4]: 0.108 µM | IC50 [5]: 0.104 µM | IC50 [6]: 0.102 µM | solubility [10]: 3.2 µg/mL (≈ 9.29 µM)

C/C(=C\c1cccc2[nH]ccc12)C(=O)c1cc(C)nc2ccccc12
IC50 [3]: > 1 µM

COc1ccc(/C=C(\C)C(=O)c2cc(C=O)nc3ccccc23)cc1O
IC50 [3]: 0.11 µM

Cc1cc(C(=O)/C=C/c2cccc3[nH]ccc23)c2ccccc2n1
IC50 [3]: > 1 µM

CNc1cc(C(=O)/C(C)=C/c2ccc(OC)c(O)c2)c2ccccc2n1
IC50 [3]: 0.018 µM | IC50 [4]: 0.029 µM | IC50 [5]: 0.04 µM | IC50 [6]: 0.043 µM | IC50 [8]: 1.09 µM | selectivity ratio [9]: 40.2 | IC50 [7]: 0.027 µM

C/C(=C\c1ccc2[nH]ccc2c1)C(=O)c1cc(C)nc2ccccc12
IC50 [3]: 0.346 µM | IC50 [4]: 0.429 µM | IC50 [5]: 0.421 µM | IC50 [6]: 0.425 µM | IC50 [7]: 0.226 µM

Cc1cc(C(=O)/C=C/c2ccc3[nH]ccc3c2)c2ccccc2n1
IC50 [3]: > 1 µM

COc1ccc(/C=C(\C)C(=O)c2cc(N(C)C)nc3ccccc23)cc1O
IC50 [3]: 0.049 µM | IC50 [4]: 0.043 µM | IC50 [5]: 0.052 µM | IC50 [6]: 0.048 µM | IC50 [7]: 0.057 µM

COc1ccc(/C=C(\C)C(=O)c2cc(C)nc3ccccc23)cc1O
Activity [11]: Dose-dependent effect | Activity [12]: Dose-dependent effect | inhibition [13]: Dose-dependent effect | inhibition [14]: 79.4% | inhibition [15]: 92.7% | Activity [16]: Dose-dependent effect | Activity [17]: Active | Activity [18]: Active | Activity [19]: Dose-dependent effect | Activity [20]: Dose-dependent effect | Activity [21]: Dose-dependent effect | Activity [22]: Dose-dependent effect | Activity [23]: Dose-dependent effect | Activity [24]: inactive | Activity [25]: Dose-dependent effect | Activity [26]: Dose-dependent effect | Activity [27]: Active | inhibition [28]: Active | Activity [29]: Dose-dependent effect | Activity [30]: Active | Activity [31]: Dose-dependent effect | Activity [32]: Active | Activity [33]: Active

COc1ccc(/C=C(\C)C(=O)c2cc(C)nc3ccccc23)cc1N
IC50 [3]: 0.011 µM | IC50 [4]: 0.025 µM | IC50 [5]: 0.036 µM | IC50 [6]: 0.063 µM | IC50 [8]: 0.923 µM | selectivity ratio [9]: 25.6 | IC50 [7]: 0.036 µM

COc1ccc(/C=C(\C)C(=O)c2cc(C)nc3ccccc23)cc1O.Cl
solubility [10]: > 1000 µg/mL | Activity [34]: 68.9% | Activity [35]: Non-Toxic

C/C(=C\c1ccc2c(ccn2C)c1)C(=O)c1cc(C)nc2ccccc12
IC50 [3]: 0.074 µM | IC50 [4]: 0.124 µM | IC50 [5]: 0.135 µM | IC50 [6]: 0.22 µM | IC50 [7]: 0.111 µM

COc1ccc2c(/C=C/C(=O)c3cc(C)nc4ccccc34)c[nH]c2c1
IC50 [3]: > 1 µM

COc1ccc(/C=C(\C)C(=O)c2cc(C)nc3ccccc23)cc1OC
IC50 [3]: 1.05 µM

COc1ccc(/C=C/C(=O)c2cc(C)nc3ccccc23)cc1N
IC50 [3]: 0.85 µM | IC50 [4]: 0.189 µM | IC50 [5]: 0.21 µM | IC50 [6]: 0.195 µM | IC50 [7]: 0.223 µM

CCNc1cc(C(=O)/C(C)=C/c2ccc(OC)c(O)c2)c2ccccc2n1
IC50 [3]: 0.04 µM
